{"source": "patent US20240117005A1", "about": "“NOVEL BICYCLIC PEPTIDES” (THE COUNCIL OF THE QUEENSLAND INSTITUTE OF MEDICAL RESEARCH, priority 2021, published 2024)", "key": {"4T1 cells": {"system": "4T1 cells", "assay": "WST-1 cell proliferation assay, 4T1", "assay_type": "cell-based", "conditions": "4T1, WST-1, 72 hours", "experimental": "(A) CT26, 4T1 or MDA-MB-231 Cells were treated with inhibitors for 72 hours. Following inhibition, media was removed and replaced with WST-1 cell proliferation reagent. Absorbance was recorded at 450 nm after 1 hour. Data represent a single independent experiment performed in triplicate. Results are graphed as mean +/− standard error (SE). B) MDA-MB-231 or CT26 cancer cells were treated with vehicle control, DL-2-Batch 1 (original stock), DL-2-Batch 2 (current stock), DL-2-TBAB or linear PDL1. Cells were permeabilised and were probed with the DUOLINK ligation assay. Cover slips were mounted on glass microscope slides with ProLong nucblue glass Antifade reagent (Life Technologies). PDL1Ac and IMPα1 DUOLINK Digital images were analysed using ImageJ software (ImageJ, NIH, Bethesda, MD, USA) and graphs represent the mean DOT Fluorescent Intensity in the nucleus or the cytoplasm compartments with significant differences calculated as per one-way ANOVA comparison. (C) MDA-MB-231 or CT26 cancer cells were treated with vehicle control, DL-2-Batch 1 (Original stock), DL-2-Batch 2 (current stock), DL-2-TBAB or linear PDL1. Cells were permeabilised and were probed with the DUOLINK ligation assay. Cover slips were mounted on glass microscope slides with ProLong nucblue glass Antifade reagent (Life Technologies). PDL1-unmodified and IMPα1 DUOLINK digital images were analysed using ImageJ software (ImageJ, NIH, Bethesda, MD, USA) and graphs represent the mean DOT fluorescent intensity in the nucleus or the cytoplasm compartments with significant differences calculated as per one-way ANOVA comparison.\n4T1, CT26 or MDA-MB-231 cancer cell lines were treated with DL-2 or DL-2-D bicyclic inhibitors for 72 hours. Following inhibition, media was removed and replaced with WST-1 cell proliferation reagent. Absorbance was recorded at 450 nm after 1 hour. Data represent a single independent experiment performed in triplicate; results are graphed as mean +/− standard error (SE)."}, "MCF-7 cells": {"system": "MCF-7 cells", "assay": "RNA-seq differential expression, DL-2 vs. Stimulated", "assay_type": "cell-based, human", "conditions": "MCF-7, DL-2 vs. Stimulated (PMA)", "excerpt": "RNA-sequencing (RNA seq) data were obtained from human breast cancer cell line MCF-7 with and without DL-2 treatment. A total of 9 samples from […] experimental groups were collected, as follows: • Control (non-stimulated control, Ctrl) (n=3); • Stimulated (PMA stimulated control) (n=3); • DL-2 (treated with DL-2 and stimulated with PMA) (n=3); For the DL-2 treatment group, the MCF-7 cells were exposed to DL-2 first, then stimulated with PMA thereafter. RNA-seq data were generated, fastq data were downloaded to the QIMR Berghofer server, and then archived to the HSM by Scott Wood. Sequence reads were trimmed for adapter sequences using Cutadapt (version 1.9; Martin (2011)) and aligned using STAR (version 2.5.2a; Dobin et al. (2013)) to the GRCh37 assembly with the gene, transcript, and exon features of Ensembl (release 70) gene model. Quality control metrics were computed using RNA-SeQC (version 1.1.8; DeLuca et al. (2012)) and expression was estimated using RSEM (version 1.2.30; Li and Dewey (2011)). In our analysis, we corrected for library size by dividing each sample's gene count by million reads mapped. This procedure is a common approach known as counts per million (CPM). We further corrected for differences in RNA composition using a method proposed by Robinson and Oshlack (2010a) called trimmed mean of M values (TMM). We used the function calcNormFactors( ) from the edgeR package (Robinson, McCarthy, and Smyth (2010b)) to obtain TMM factors and used these to correct for differences in RNA composition. Differential expression (DE) analysis was performed using the R package edgeR (Robinson, McCarthy, and Smyth (2010b)). Note that the inputs for DE analysis are the filtered but not normalised read counts, since edgeR performs normalisation (library size and RNA composition) internally. The […]( ) function was used to fit a quasi-likelihood negative binomial generalised log-linear model to the read counts for each gene. Using the […]( ) function, we conducted gene-wise empirical Bayes quasi-likelihood F-tests for a given contrast. As per the edgeR user's guide, “the quasi-likelihood method is highly recommended for differential expression analyses of bulk RNA-seq data [versus the likelihood ratio test] as it gives stricter error rate control by accounting for the uncertainty in dispersion estimation”."}, "[1]": {"system": "PKCθ, LSD1, p65, C-Rel, SET, pSTAT3", "assay": "Determination of nuclear-associated proteins", "assay_type": "cell-based, human", "conditions": "MDA-MB-231, 10 μM", "experimental": "MDA-MB-231 cells were treated with DL-2 with concentration of 10 μM. MDA-MB-231 cells were treated with DL-2 or control and were permeabilised before being probed with the antibodies specific for PKCθ, LSD1, p65, C-Rel, SET, pSTAT3. Cover slips were mounted on glass microscope slides with ProLong nucblue glass Antifade reagent (Life Technologies). Digital images were analysed using ImageJ software (ImageJ, NIH, Bethesda, MD, USA) and graphs represent the mean fluorescence intensity in the nucleus or the cytoplasm compartments with significant differences calculated as per Mann-Whitney pairwise comparison."}}, "data": [{"compound": "CCCCCCCCCCCCCC(=O)NC(C)C(=O)NC1CSCc2cc3cc(c2)CSC[C@H](NC(=O)[C@H](Cc2ccccc2)NC(=O)[C@H](C(C)CC)NC(=O)[C@H](Cc2ccccc2)NC(=O)[C@H]([C@@H](C)O)NC(=O)C(CC(C)C)NC1=O)C(=O)N[C@@H](CCCNC(C)=N)C(=O)N[C@@H](CC(C)C)C(=O)N[C@@H](CCCNC(=N)N)C(=O)N[C@@H](CCCCN)C(=O)NCC(=O)N[C@@H](CCCNC(=N)N)C(=O)NC(C(=O)N[C@@H](CCSC)C(=O)NC(CCSC)C(=O)N[C@@H](CC(=O)O)C(=O)NC(C(=O)N[C@@H](CCCCN)C(=O)NC(CCCCN)C(=O)O)C(C)C)CSC3", "note": "(mixture of isomers) [DL-2]", "values": [{"measurement": "inhibition of proliferation", "setting": "4T1 cells", "value": "significantly inhibit the proliferation"}, {"measurement": "inhibition of proliferation", "setting": "4T1 cells; listed as DL-2-TBMB", "value": "able to effectively inhibit the proliferation"}, {"measurement": "logFC A2M", "setting": "MCF-7 cells", "value": 1.461}, {"measurement": "logFC AKR1C1", "setting": "MCF-7 cells", "value": "−1.324"}, {"measurement": "logFC ALDH1A3", "setting": "MCF-7 cells", "value": "−0.9248"}, {"measurement": "logFC ATP6V0B", "setting": "MCF-7 cells", "value": 0.647}, {"measurement": "logFC B3GAT3", "setting": "MCF-7 cells", "value": 0.8186}, {"measurement": "logFC BSCL2", "setting": "MCF-7 cells", "value": 0.9849}, {"measurement": "logFC C19orf10", "setting": "MCF-7 cells", "value": 0.7917}, {"measurement": "logFC CAMSAP2", "setting": "MCF-7 cells", "value": "−0.7468"}, {"measurement": "logFC CD99", "setting": "MCF-7 cells", "value": 0.6829}, {"measurement": "logFC CDKN2B", "setting": "MCF-7 cells", "value": "−0.5982"}, {"measurement": "logFC CHPF", "setting": "MCF-7 cells", "value": 0.6073}, {"measurement": "logFC CTNNAL1", "setting": "MCF-7 cells", "value": "−0.5943"}, {"measurement": "logFC CTSD", "setting": "MCF-7 cells", "value": 1.079}, {"measurement": "logFC CXCL12", "setting": "MCF-7 cells", "value": 1.155}, {"measurement": "logFC ELF1", "setting": "MCF-7 cells", "value": "−0.7207"}, {"measurement": "logFC ENTPD1", "setting": "MCF-7 cells", "value": 0.8956}, {"measurement": "logFC ETV3", "setting": "MCF-7 cells", "value": "−0.6424"}, {"measurement": "logFC FILIP1L", "setting": "MCF-7 cells", "value": "−0.7563"}, {"measurement": "logFC FOXN3", "setting": "MCF-7 cells", "value": "−0.75"}, {"measurement": "logFC IFIT2", "setting": "MCF-7 cells", "value": "−1.213"}, {"measurement": "logFC IGFBP2", "setting": "MCF-7 cells", "value": 0.7385}, {"measurement": "logFC IGFBP4", "setting": "MCF-7 cells", "value": 0.6164}, {"measurement": "logFC INPP4B", "setting": "MCF-7 cells", "value": "−0.6381"}, {"measurement": "logFC KIAA1324", "setting": "MCF-7 cells", "value": 0.6324}, {"measurement": "logFC KLHL5", "setting": "MCF-7 cells", "value": "−1.028"}, {"measurement": "logFC MANF", "setting": "MCF-7 cells", "value": 0.8172}, {"measurement": "logFC MMP9", "setting": "MCF-7 cells", "value": "−1.43"}, {"measurement": "logFC MOB1A", "setting": "MCF-7 cells", "value": "−0.6723"}, {"measurement": "logFC MUC1", "setting": "MCF-7 cells", "value": 0.9921}, {"measurement": "logFC NEDD9", "setting": "MCF-7 cells", "value": "−0.7516"}, {"measurement": "logFC NEU1", "setting": "MCF-7 cells", "value": 0.6165}, {"measurement": "logFC PPIB", "setting": "MCF-7 cells", "value": 0.8358}, {"measurement": "logFC PRDX4", "setting": "MCF-7 cells", "value": 0.6511}, {"measurement": "logFC QKI", "setting": "MCF-7 cells", "value": "−0.8595"}, {"measurement": "logFC RAI14", "setting": "MCF-7 cells", "value": "−0.8091"}, {"measurement": "logFC SERPINA3", "setting": "MCF-7 cells", "value": 1.008}, {"measurement": "logFC SGCG", "setting": "MCF-7 cells", "value": 1.126}, {"measurement": "logFC SIRT1", "setting": "MCF-7 cells", "value": "−0.7444"}, {"measurement": "logFC SLC7A11", "setting": "MCF-7 cells", "value": "−0.8545"}, {"measurement": "logFC STC1", "setting": "MCF-7 cells", "value": 0.7265}, {"measurement": "logFC TACC1", "setting": "MCF-7 cells", "value": "−0.6077"}, {"measurement": "logFC TAPBP", "setting": "MCF-7 cells", "value": 0.5968}, {"measurement": "logFC TBC1D5", "setting": "MCF-7 cells", "value": "−0.897"}, {"measurement": "logFC TCN1", "setting": "MCF-7 cells", "value": 2.029}, {"measurement": "logFC TFF1", "setting": "MCF-7 cells", "value": 1.253}, {"measurement": "logFC TMED3", "setting": "MCF-7 cells", "value": 0.6673}, {"measurement": "logFC TXNRD1", "setting": "MCF-7 cells", "value": "−0.7667"}, {"measurement": "logFC ZMYND11", "setting": "MCF-7 cells", "value": "−2.883"}, {"measurement": "logFC ZNF267", "setting": "MCF-7 cells", "value": "−0.6577"}, {"measurement": "off-target effects on nuclear proteins (PKCθ, LSD1, p65, C-Rel, SET, pSTAT3)", "setting": "[1]", "value": "No off-target effects were observed"}]}]}
